# Assays:
# Assay type in all cases: cell-based
# E. coli = experiment: Dark toxicity against E. coli, concentration study at 0 min (CFU counting); settings: in the dark
# Procedure: (§1) 500 μM stock solutions of the samples were prepared in ultra-pure water (5% DMSO) and used at different concentrations in the biological assays.
# (§2) Two bacterial strains were used for the PACT studies; S. aureus as a gram-(+) bacterium and E. coli as a gram-(−) negative bacterium. Stock cultures were grown aerobically in 6 mL of nutrient broth incubated at 37° C. on a rotary shaker (~200 rpm) to obtain bacteria cultures. The incubation was maintained until the optical density of the culture at 600 nm was determined to be between 0.6 and 0.8. The resulting bacterial solution was centrifuged to remove the broth, and bacterial cells were washed three times with PBS. The solution of the bacteria was prepared by diluting with PBS to obtain […] bacteria solutions corresponding to ~10^9 and ~10^8 colony forming units (CFU)/mL, respectively.
# (§3) The bacteria/photosensitizer mixtures were incubated in an oven equipped with a shaker for 30 min in the dark at 37° C. before plating. 100 μL of solution was taken from the suspension and was immediately inoculated on agar plates to determine the activity at 0 min without treatment. The number of colonies was then counted on each plate after 18 h of incubation at 37° C. Control treatments were performed in the absence of photosensitizer. All experiments were carried out three times. The data for CFU/mL were converted to the logarithmic form.
# S. aureus [1] = experiment: Dark toxicity against S. aureus, concentration study at 0 min (CFU counting)
# Procedure: as §1, §2, §3
# S. aureus [2] = experiment: Photodynamic inactivation of S. aureus (with irradiation); settings: after irradiation 20 min at 0.5, 1 and 2.5 μM
# Procedure: as §2
# as §3, with “Pc solutions were prepared by dissolving in water containing 5% DMSO and applied over the range of 0-10 μM for S. aureus and 0-15 μM for E. coli. The bacteria/photosensitizer” for “The bacteria/photosensitizer”
# [3] = system: MCF-7 (human breast adenocarcinoma) cells; experiment: In vitro dark cytotoxicity, MCF-7 cells (anticancer studies); settings: MCF-7, dark
# Procedure: MCF-7 (human breast adenocarcinoma) cells were cultured in Dulbecco's modified Eagle's medium-10% fetal bovine serum (DMEM-FBS) and PSA (penicillin/streptomycin/Amphotericin B) at 37° C. in an incubator (5% CO2) in 75 cm^2 vented flasks. The cultures were grown as a monolayer. The growth cells were transferred to well plates by trypsinizing with 0.25% trypsin-EDTA. The Pc stock concentrations were prepared by separately dissolving them in DMSO (1%) and diluting in water and the Pc gradient concentration was prepared by taking known aliquots from the stock and finally made up to marked volume with supplemented media with phenol red.
# It was studied from […] both in the dark. 100 μL each of the newly prepared gradient Pcs concentration of 0 μg/mL (control), 5 μg/mL, 10 μg/mL, 20 μg/mL, 40 μg/mL, 60 μg/mL 80 μg/mL, 100 μg/mL and 120 μg/mL were administered on the incubated seeded cells. The 96 well cell culture plates containing the cells and the Pcs were incubated at 37° C. and 5% CO2 in the dark for 24 h. After 24 h treatment, the wells were rinsed with 100 μL DPBS. Cell survival was expressed as percentage of control cells (cells without Pcs). Post treatment cell viability was measured using the cell proliferation […] reagent (WST-1 assay) on a Synergy 2 multi-mode microplate reader (BioTek®) at a wavelength of 450 nm according to the following equation 1.
smiles,measurement,setting,value
C[n+]1c(-c2ccc(Oc3ccc4c(c3)C3=Nc5c6ccc(Oc7ccc(-c8[nH]c9cc(Cl)cc(Cl)c9[n+]8C)cc7)cc6c6[n]5[Zn][n]5c(c7ccc(Oc8ccc(-c9[nH]c%10cc(Cl)cc(Cl)c%10[n+]9C)cc8)cc7c5=NC5=NC(=N6)c6cc(Oc7ccc(-c8[nH]c9cc(Cl)cc(Cl)c9[n+]8C)cc7)ccc65)=NC4=N3)cc2)[nH]c2cc(Cl)cc(Cl)c21.[I-].[I-].[I-].[I-] [Compound 193],Ecoli log CFU/ml (logarithmic reduction value),E. coli; at the concentration of the μM column,8.79 log CFU/ml
same,Ecoli μM (concentration corresponding to the logarithmic reduction),E. coli; range tested 0-15 μM,1 μM
same,log reduction (dark toxicity),"S. aureus [1]; dark, 0 min, at 5 and 10 μM",9.63
same,Staph log CFU/ml (logarithmic reduction value),"S. aureus [1]; in the dark, at 0 min, at the concentration of the μM column",9.61 log CFU/ml
same,Staph μM (concentration corresponding to the logarithmic reduction),"S. aureus [1]; in the dark, at 0 min, range tested 0-10 μM",4 μM
same,log reduction (photocytotoxicity),S. aureus [2],9.63
same,optimal concentration to kill the cancer cells,[3],40 µM
same,Min. Death conc.,[3]; 24 h,40 µM
same,Cell death,"[3]; 24 h, at the Min. Death conc.",72.7%
same,cancer cells killed at the optimal concentration,[3]; at the optimal concentration,72.7%

# From US20260193278A1, “NOVEL PHTHALOCYANINE COMPOUNDS AND THE USE THEREOF FOR THE TREATMENT OF DISEASES” (RHODES UNIVERSITY, priority 2022, published 2026)
